Data published in BindingDB's records for doi:10.1021/jm00053a022 (University of Paris, 1993).
Non-standard residues stand in square brackets, D forms with d. Residues, ends and D or L forms follow the SMILES beside them. *: point of attachment. NMeW = CN[C@@H](Cc1c[nH]c2ccccc12)C(=O)O; 1Nal = N[C@@H](Cc1cccc2ccccc12)C(=O)O; Chg = N[C@H](C(=O)O)C1CCCCC1; Phg = N[C@H](C(=O)O)c1ccccc1; OtBu = CC(C)(C)O*

The molecules below were run against Gastrin/cholecystokinin type B receptor (Cavia porcellus) (assay: Displacement of [3H]pCCK-8 from cholecystokinin type B receptor in guinea pig brain membrane).

For CCCC[C@H](NC(=O)[C@H](CC(=O)O)NC(=O)[C@@H](N)Cc1ccccc1)C(=O)N[C@H](Cc1c[nH]c2ccccc12)C(=O)OC(C)(C)C [3-(2-Amino-3-phenyl-propionylamino)-N-{1-[1-tert-butoxycarbonyl-2-(1H-indol-3-yl)-ethylcarbamoyl]-pentyl}-succinamic acid], the Ki was 160 nM.

Molecular target: Gastrin/cholecystokinin type B receptor (Cavia porcellus)
Test: as above
Remark: another data set of the same source

Going from CN(C(=O)[C@@H](NC(=O)[C@H](CC(=O)O)NC(=O)[C@@H](N)Cc1cccc2ccccc12)C1CCCCC1)[C@@H](Cc1c[nH]c2ccccc12)C(=O)OC(C)(C)C [3-(2-Amino-3-naphthalen-1-yl-propionylamino)-N-({[1-tert-butoxycarbonyl-2-(1H-indol-3-yl)-ethyl]-methyl-carbamoyl}-cyclohexyl-methyl)-succinamic acid] (H-[1Nal]D[Chg][NMeW]-OtBu) to CN(C)[C@@H](Cc1cccc2ccccc12)C(=O)N[C@@H](CC(=O)O)C(=O)N[C@H](C(=O)N[C@@H](Cc1c[nH]c2ccccc12)C(=O)OC(C)(C)C)C1CCCCC1 [N-{[1-tert-Butoxycarbonyl-2-(1H-indol-3-yl)-ethylcarbamoyl]-cyclohexyl-methyl}-3-(2-dimethylamino-3-naphthalen-1-yl-propionylamino)-succinamic acid], the Ki falls from 140 nM to 74 nM (1.9-fold).

Compared with CN(C(=O)[C@@H](NC(=O)[C@H](CC(=O)O)NC(=O)[C@@H](N)Cc1cccc2ccccc12)c1ccccc1)[C@@H](Cc1c[nH]c2ccccc12)C(=O)OC(C)(C)C [3-(2-Amino-3-naphthalen-1-yl-propionylamino)-N-({[1-tert-butoxycarbonyl-2-(1H-indol-3-yl)-ethyl]-methyl-carbamoyl}-phenyl-methyl)-succinamic acid] (H-[1Nal]D[Phg][NMeW]-OtBu), CN(C)[C@@H](Cc1cccc2ccccc12)C(=O)N[C@@H](CC(=O)O)C(=O)N[C@H](C(=O)N[C@@H](Cc1c[nH]c2ccccc12)C(=O)OC(C)(C)C)c1ccccc1 [N-{[1-tert-Butoxycarbonyl-2-(1H-indol-3-yl)-ethylcarbamoyl]-phenyl-methyl}-3-(2-dimethylamino-3-naphthalen-1-yl-propionylamino)-succinamic acid] is 4.4-fold lower in Ki: 170 nM for the first, 39 nM for the second.

Compared with CC(C)(C)OC(=O)[C@H](Cc1c[nH]c2ccccc12)NC(=O)[C@H](Cc1ccccc1)NC(=O)[C@H](CC(=O)O)NC(=O)[C@@H](N)Cc1cccc2ccccc12 [3-(2-Amino-3-naphthalen-1-yl-propionylamino)-N-{1-[1-tert-butoxycarbonyl-2-(1H-indol-3-yl)-ethylcarbamoyl]-2-phenyl-ethyl}-succinamic acid] (H-[1Nal]DFW-OtBu), CCCC[C@H](NC(=O)[C@H](CC(=O)O)NC(=O)[C@@H](N)Cc1ccccc1)C(=O)N[C@H](Cc1c[nH]c2ccccc12)C(=O)OC(C)(C)C [3-(2-Amino-3-phenyl-propionylamino)-N-{1-[1-tert-butoxycarbonyl-2-(1H-indol-3-yl)-ethylcarbamoyl]-pentyl}-succinamic acid] is 2.3-fold higher in Ki: 71 nM for the first, 160 nM for the second.

In the case of CCCC[C@H](NC(=O)[C@H](CC(=O)O)NC(=O)[C@H](Cc1cccc2ccccc12)N(C)C)C(=O)N(C)[C@@H](Cc1c[nH]c2ccccc12)C(=O)OC(C)(C)C [N-(1-{[1-tert-Butoxycarbonyl-2-(1H-indol-3-yl)-ethyl]-methyl-carbamoyl}-pentyl)-3-(2-dimethylamino-3-naphthalen-1-yl-propionylamino)-succinamic acid], the Ki is reported as 81 nM.
